In patent US20220265769A1, “COMPOSITIONS AND METHODS OF TREATMENT FOR BREAST CANCER INVOLVING A NOVEL CAPER?-MLL1 COMPLEX” (Geisinger Health, priority 2019, published 2022):

Tests used:
[1] = target: T1, RBM39 and RNA binding proteins (RBPs) (Homo sapiens, UniProt Q14498); assay: Co-immunoprecipitation of RBM39 and its RBP interactors in peptide-treated T47D cell lysates; assay type: cell-based; settings: versus Neg.CPP
T1 construct: endogenous in cells; host or cells: T47D
T1 sequence (Q14498 2-530 limits assumed): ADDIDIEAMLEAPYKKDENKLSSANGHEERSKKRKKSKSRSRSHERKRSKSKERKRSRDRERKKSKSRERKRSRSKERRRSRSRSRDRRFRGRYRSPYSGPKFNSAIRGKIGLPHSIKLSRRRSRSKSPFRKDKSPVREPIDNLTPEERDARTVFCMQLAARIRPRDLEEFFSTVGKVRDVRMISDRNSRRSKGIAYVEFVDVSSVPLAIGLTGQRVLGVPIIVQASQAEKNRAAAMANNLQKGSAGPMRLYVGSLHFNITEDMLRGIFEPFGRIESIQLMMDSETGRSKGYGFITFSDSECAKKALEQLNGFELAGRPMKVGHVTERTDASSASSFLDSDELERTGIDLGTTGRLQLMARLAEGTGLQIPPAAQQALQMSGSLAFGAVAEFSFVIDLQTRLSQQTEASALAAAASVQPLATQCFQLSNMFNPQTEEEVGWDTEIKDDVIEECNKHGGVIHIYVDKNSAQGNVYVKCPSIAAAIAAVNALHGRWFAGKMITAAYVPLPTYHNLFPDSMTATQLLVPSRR
Excerpt: (§1) FIG. 31. Key structural domains mediate the RRM3-MLL1 interaction. A) Modeling of RRM3 domain structure (amino acids: 441 to 510; SEQ ID NO: 13) using the SWISS MODEL tool and conserved domains by sequence alignment with vertebrate RRM-domaining proteins (https://www.ncbi.nlm.nih.gov/Structure/cdd/cddsrv.cgi?uid=240731) B) Top: anti-MLL1 IB to test the interaction between MLL1 and myc-tagged, deletion mutant RRM3 proteins in HEK293 cells. Bottom: IB/IP to quantitate myc-tagged proteins in lysates from HEK293 overexpressing wild type and microdeleted RRM3 domains. C) Bar graphs quantitating % viable cells after peptide treatments (peptides are numbered 1-5 as in FIG. 10) for 4 days. […] Lanes are labeled with peptide names. Arrowhead highlights signal from the entry of CPP. […] F) Anti-RBM39 immunoprecipitated samples from Neg.CPP (SEQ ID NO: 12), CPP-L491-L508 (SEQ ID NO: 24), CPP-G441-V460 (SEQ ID NO: 20), and CPP-E445-V476 (SEQ ID NO: 15) treated T47D lysates assayed by immunoblotting with antibodies against MLL1, ASH2L, RbBP5. […] G) Representative co-immunoprecipitations to show the interaction between RBM39 and its RBP interactors in Neg.CPP and CPP-E445-V476 treated T47D cell lysates. […]

[2] = tested on: breast cancer cell subtypes; assay: Total cell number and viability of an array of breast cancer cell subtypes treated with synthetic RRM3-derived peptides; assay type: cell-based, human; settings: synthetic peptides at 5 μM; for proliferation (total cell number) of breast cancer cell subtypes: 72 hours
Protocol: FIG. 10. RRM3-derived CPPs disrupts growth of multiple breast cancer cell subtypes but has no effect on normal cells. A) Schematic of RRM3 amino acids 441-510 (SEQ ID NO: 13). B) Bars represent the peptide regions used to generate CPPs based on deletion results in FIG. 31. C) Amino acid sequences of synthetic peptide: Penetratin, His tag and RRM3-derived peptide. D) Representative images of crystal violet stained breast cancer cells as listed at top, taken after 72 hours days of treatment with synthetic peptides at 5 μM. E) Quantification of total cell numbers of different cell types and peptide (1-5) treatments.
FIG. 31. Key structural domains mediate the RRM3-MLL1 interaction. A) Modeling of RRM3 domain structure (amino acids: 441 to 510; SEQ ID NO: 13) using the SWISS MODEL tool and conserved domains by sequence alignment with vertebrate RRM-domaining proteins (https://www.ncbi.nlm.nih.gov/Structure/cdd/cddsrv.cgi?uid=240731) B) Top: anti-MLL1 IB to test the interaction between MLL1 and myc-tagged, deletion mutant RRM3 proteins in HEK293 cells. Bottom: IB/IP to quantitate myc-tagged proteins in lysates from HEK293 overexpressing wild type and microdeleted RRM3 domains. C) Bar graphs quantitating % viable cells after peptide treatments (peptides are numbered 1-5 as in FIG. 10) for 4 days. […] Lanes are labeled with peptide names. Arrowhead highlights signal from the entry of CPP. […] F) Anti-RBM39 immunoprecipitated samples from Neg.CPP (SEQ ID NO: 12), CPP-L491-L508 (SEQ ID NO: 24), CPP-G441-V460 (SEQ ID NO: 20), and CPP-E445-V476 (SEQ ID NO: 15) treated T47D lysates assayed by immunoblotting with antibodies against MLL1, ASH2L, RbBP5. […] G) Representative co-immunoprecipitations to show the interaction between RBM39 and its RBP interactors in Neg.CPP and CPP-E445-V476 treated T47D cell lysates. […] Immunoprecipitations and Immunoblots assaying RBM39-MLL1 interaction in neg.CPP and CPP-E445-V476 treated T47D, HCC1954, MDA-MB231 and ZR7530 cells show reduced interaction between MLL1 and RBM39 in vivo. (arrows highlight decreased interaction).
(§2) Cell counts for CPP treatments: Cells were plated in 6-well dishes and incubated with 5 μM concentration of peptides. At days noted, cells were trypsinized and counted using a hemocytometer.
Generation of synthetic peptides from the RRM3 domain: RRM3-derived peptides were commercially synthesized by Abm at purity >80%. Peptides were dissolved in 1λPBS at 1 mg/ml and used at 5 μM in low serum (1%) RPMI media.
As per UniProt, RRM3 spans amino acids (aa) 445-508 (SEQ ID NO: 34) and SWISS tool predicts 2 α helices and 4 β sheets that are conserved in vertebrate RRM-containing proteins (FIG. 31A). A series of myc-tag microdeleted constructs were designed to identify regions required for MLL1 binding. […]

PME cells = assay: Crystal violet assay / cell counts of primary mammary epithelial cells (PMEs) treated with cell penetrating peptides; assay type: cell-based, human; settings: synthetic peptides at 5 μM
Protocol: Crystal violet assay/optical density method of cell quantitation: 5×10^5 cells were plated per well in 6-well tissue culture plates. At times indicated cells were washed with PBS and fixed for 10 minutes in a 10% formalin solution. Cells were then rinsed with distilled water and subsequently stained with 100 μl 0.1% crystal violet solution for 30 min. Stained cells were rinsed with water to remove the excess traces of the staining solution. Cell-associated crystal violet dye was extracted with 500 μl of 10% acetic acid. Aliquots were collected and optical density was measured at 590 nm wavelength. Each point on the curve shown represents 3 independent wells.
as §2
Whether recombinant RRM3 conjugated with the Penetratin cell penetrating peptide (Dupont E, et al., Methods Mol Biol. 1324:29-37 (2015)) (FIGS. 9A, B) affects growth of T47D and PME cells was tested. Equal numbers of PME and T47D cells were seeded and incubated with 5 μM peptide in media for 72 hrs. […] Compared to CPP-coupled RRM3, CPP-RRM1 and RRM3 had no effect (FIGS. 9H-N). […]

[3] = target: T2, RBM39 (CAPERα)/MLL1 complex (Homo sapiens, UniProt Q03164); assay: Anti-RBM39 co-immunoprecipitation of MLL1 complex members from peptide-treated breast cancer cell lysates; assay type: cell-based
T2 construct: endogenous in cells; lines from ATCC
T2 sequence (Q03164 1-2718 limits assumed): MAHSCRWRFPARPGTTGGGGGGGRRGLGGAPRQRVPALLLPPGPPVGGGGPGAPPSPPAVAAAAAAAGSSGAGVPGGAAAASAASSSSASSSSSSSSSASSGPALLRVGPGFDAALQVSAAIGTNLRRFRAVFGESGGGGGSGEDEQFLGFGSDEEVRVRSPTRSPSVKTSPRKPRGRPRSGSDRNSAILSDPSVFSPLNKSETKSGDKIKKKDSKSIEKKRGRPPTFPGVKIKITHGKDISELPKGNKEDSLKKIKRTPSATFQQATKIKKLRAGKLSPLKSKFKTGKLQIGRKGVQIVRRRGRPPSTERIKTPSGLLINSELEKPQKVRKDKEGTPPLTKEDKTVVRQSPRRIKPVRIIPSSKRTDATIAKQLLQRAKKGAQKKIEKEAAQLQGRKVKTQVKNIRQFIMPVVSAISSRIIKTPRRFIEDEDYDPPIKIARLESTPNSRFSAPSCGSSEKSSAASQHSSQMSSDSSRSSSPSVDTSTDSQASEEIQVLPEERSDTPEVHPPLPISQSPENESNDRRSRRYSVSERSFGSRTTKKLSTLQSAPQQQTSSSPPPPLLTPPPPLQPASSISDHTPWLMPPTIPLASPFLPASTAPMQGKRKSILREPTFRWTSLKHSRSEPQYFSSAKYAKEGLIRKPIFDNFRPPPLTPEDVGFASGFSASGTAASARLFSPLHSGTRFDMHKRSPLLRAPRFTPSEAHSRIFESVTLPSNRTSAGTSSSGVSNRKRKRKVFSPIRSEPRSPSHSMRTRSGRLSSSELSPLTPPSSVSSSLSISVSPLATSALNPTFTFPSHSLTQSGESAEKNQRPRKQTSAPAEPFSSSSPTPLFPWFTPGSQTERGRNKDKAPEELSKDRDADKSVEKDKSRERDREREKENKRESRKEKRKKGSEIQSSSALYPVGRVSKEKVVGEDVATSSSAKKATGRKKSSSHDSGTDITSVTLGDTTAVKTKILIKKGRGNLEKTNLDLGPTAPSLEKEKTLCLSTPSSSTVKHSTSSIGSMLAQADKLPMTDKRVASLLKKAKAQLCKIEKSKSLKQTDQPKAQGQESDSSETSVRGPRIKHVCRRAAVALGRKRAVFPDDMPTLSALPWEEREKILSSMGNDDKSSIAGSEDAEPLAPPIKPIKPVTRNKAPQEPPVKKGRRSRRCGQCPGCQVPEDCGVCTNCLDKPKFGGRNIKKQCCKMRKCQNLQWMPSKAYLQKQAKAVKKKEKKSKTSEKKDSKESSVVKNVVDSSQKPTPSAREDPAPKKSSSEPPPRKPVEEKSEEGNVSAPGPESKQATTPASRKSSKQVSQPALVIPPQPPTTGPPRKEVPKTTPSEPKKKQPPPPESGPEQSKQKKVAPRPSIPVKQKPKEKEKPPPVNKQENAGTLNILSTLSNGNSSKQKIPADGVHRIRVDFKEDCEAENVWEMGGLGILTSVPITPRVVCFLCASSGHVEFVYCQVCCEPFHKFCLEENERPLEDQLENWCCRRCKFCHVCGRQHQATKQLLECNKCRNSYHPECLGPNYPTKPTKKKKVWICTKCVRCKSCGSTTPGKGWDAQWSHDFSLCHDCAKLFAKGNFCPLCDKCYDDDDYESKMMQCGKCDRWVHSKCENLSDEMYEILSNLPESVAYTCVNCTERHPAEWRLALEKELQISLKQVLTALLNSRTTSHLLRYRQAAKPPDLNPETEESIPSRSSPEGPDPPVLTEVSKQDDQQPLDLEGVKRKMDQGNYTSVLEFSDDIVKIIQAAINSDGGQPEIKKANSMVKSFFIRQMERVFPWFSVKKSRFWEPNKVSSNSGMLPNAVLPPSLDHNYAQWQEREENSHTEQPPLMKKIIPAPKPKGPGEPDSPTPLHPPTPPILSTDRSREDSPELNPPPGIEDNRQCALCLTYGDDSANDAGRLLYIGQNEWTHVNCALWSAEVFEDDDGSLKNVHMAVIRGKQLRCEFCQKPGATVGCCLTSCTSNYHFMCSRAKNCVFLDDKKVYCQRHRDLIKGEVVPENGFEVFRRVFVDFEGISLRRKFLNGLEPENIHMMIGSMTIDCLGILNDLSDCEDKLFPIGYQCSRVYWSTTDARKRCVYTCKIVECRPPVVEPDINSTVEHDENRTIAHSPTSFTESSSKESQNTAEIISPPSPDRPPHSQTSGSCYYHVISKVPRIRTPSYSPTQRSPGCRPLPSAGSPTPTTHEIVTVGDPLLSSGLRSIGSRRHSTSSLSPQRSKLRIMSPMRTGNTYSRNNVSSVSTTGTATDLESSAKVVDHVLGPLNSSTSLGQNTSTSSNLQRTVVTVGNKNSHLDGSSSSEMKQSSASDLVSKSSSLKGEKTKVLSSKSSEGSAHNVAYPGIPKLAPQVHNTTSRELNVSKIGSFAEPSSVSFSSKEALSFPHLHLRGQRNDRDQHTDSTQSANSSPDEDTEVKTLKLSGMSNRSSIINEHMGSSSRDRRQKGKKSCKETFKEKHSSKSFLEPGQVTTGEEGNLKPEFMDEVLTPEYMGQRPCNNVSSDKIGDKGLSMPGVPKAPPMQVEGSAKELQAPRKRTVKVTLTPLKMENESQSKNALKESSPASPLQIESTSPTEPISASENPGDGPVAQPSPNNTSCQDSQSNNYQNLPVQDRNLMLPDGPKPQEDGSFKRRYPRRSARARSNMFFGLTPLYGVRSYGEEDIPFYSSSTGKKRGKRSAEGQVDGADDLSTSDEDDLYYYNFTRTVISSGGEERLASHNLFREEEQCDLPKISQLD
T2 sequence (Q03164 2719-3969 limits assumed): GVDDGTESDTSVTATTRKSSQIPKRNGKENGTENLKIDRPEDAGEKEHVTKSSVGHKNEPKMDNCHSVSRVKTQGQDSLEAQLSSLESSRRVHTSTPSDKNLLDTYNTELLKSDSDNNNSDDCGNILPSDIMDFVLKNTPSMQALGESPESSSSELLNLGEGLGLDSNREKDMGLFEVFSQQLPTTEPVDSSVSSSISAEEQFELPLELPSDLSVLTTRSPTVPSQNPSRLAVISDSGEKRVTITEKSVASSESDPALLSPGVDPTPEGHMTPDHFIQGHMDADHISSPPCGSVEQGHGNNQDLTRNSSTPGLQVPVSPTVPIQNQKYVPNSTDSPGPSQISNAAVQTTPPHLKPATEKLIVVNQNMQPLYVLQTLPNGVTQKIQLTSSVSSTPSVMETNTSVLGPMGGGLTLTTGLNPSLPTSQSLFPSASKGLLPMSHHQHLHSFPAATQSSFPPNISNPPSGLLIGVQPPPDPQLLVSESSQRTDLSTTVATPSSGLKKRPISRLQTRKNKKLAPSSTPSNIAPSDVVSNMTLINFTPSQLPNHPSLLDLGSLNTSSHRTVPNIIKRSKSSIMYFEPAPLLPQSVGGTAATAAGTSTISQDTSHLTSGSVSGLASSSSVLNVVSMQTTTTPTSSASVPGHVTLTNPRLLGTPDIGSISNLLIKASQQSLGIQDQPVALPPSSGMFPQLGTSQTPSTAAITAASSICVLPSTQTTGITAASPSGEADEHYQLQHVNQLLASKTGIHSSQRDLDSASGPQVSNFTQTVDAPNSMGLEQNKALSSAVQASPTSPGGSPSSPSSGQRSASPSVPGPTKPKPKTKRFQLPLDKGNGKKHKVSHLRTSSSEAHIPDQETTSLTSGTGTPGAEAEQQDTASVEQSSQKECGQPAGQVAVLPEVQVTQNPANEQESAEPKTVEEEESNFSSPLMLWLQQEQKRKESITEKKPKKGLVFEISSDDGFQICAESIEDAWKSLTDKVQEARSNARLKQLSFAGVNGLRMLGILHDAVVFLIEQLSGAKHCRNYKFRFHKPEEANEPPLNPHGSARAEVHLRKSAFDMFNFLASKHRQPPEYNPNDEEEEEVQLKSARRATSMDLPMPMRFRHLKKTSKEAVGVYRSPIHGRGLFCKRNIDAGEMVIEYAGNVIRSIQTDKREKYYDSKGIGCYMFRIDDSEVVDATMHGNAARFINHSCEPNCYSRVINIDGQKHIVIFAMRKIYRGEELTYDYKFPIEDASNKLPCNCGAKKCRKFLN
T2 sequence (Q15291 whole entry partner): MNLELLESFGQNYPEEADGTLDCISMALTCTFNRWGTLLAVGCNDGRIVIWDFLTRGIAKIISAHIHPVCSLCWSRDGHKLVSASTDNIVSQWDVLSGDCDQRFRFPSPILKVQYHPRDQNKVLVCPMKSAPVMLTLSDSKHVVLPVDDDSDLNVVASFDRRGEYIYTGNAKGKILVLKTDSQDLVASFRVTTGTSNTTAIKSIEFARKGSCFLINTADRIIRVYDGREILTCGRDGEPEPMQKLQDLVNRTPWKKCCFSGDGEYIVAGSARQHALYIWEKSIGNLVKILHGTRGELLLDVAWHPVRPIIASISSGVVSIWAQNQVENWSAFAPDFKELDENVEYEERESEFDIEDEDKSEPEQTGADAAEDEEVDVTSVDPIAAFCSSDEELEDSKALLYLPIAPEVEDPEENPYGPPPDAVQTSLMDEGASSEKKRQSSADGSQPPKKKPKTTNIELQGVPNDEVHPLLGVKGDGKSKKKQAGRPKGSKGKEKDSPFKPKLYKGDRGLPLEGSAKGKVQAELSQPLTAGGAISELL
Excerpt: as §1

interaction of RBM39 with RBPs [1] | endogenous interaction between RBM39 and MLL1 ([3]; T47D, HCC1954, MDA-MB231 and ZR7530 cells, versus neg.CPP) | interaction between RBM39 and MLL1 complex members (MLL1, ASH2L, RbBP5) ([3]; treated T47D lysates, anti-RBM39 immunoprecipitation) | Substance | proliferation (total cell number) of breast cancer cell subtypes [2] | viability (% viable cells) of breast cancer cell subtypes ([2]; 4 days) | effect on PMEs / normal cells (proliferation and viability) (PME cells)
did not affect the interaction | disrupts the endogenous interaction | reduced the interaction | CPP-E445-V476: synthetic RRM3-derived peptide E445-V476 with Penetratin and His tags (SEQ ID NO: 15; with His tag SEQ ID NO: 14) (RQIKIWFQNRRMKWKKGGEIKDDVIEECNKHGGVIHIYVDKNSAQGNVYVHHHHHH; RRM3-derived synthetic sequence) | pronounced effects on all subtypes | pronounced effects on all subtypes | no effect
– | – | – | CPP-G441-V460: synthetic RRM3-derived peptide G441-V460 with Penetratin and His tags (SEQ ID NO: 20; with His tag SEQ ID NO: 21) (RQIKIWFQNRRMKWKKGGGWDTEIKDDVIEECNKHGGVHHHHHH; RRM3-derived synthetic sequence) | affected some Luminal and HER2+ subtypes | – | –
– | – | – | RRM3 E445-V476: RRM3 E445-V476 peptide in the absence of Penetratin, negative control (SEQ ID NO: 2) (EIKDDVIEECNKHGGVIHIYVDKNSAQGNVYV; listed as Homo sapiens) | no effect | – | –
